Experiments:
human MT1 receptor = biological target: T1, human MT1 receptor (Homo sapiens, UniProt P48039); assay: Activation of human MT1 receptor in receptor-expressing cells, intracellular Ca2+ by FLIPR; assay type: cell-based; conditions: for EC50: HEK293EBNA1 cells stably expressing human MT1 and Gq/i chimeric G protein, Ca2+ FLIPR; for Emax: maximum reaction by ramelteon taken as 100%
T1 construct: expressed in transfected cells

human MT2 receptor = biological target: T2, human MT2 receptor (Homo sapiens, UniProt P49286); assay: Activation of human MT2 receptor in receptor-expressing cells, intracellular Ca2+ by FLIPR; assay type: cell-based; conditions: for EC50: HEK293 cells stably expressing human MT2 and Gq/i chimeric G protein, Ca2+ FLIPR; for Emax: maximum reaction by ramelteon taken as 100%
T2 construct: expressed in transfected cells
T2 sequence (P49286 1-362): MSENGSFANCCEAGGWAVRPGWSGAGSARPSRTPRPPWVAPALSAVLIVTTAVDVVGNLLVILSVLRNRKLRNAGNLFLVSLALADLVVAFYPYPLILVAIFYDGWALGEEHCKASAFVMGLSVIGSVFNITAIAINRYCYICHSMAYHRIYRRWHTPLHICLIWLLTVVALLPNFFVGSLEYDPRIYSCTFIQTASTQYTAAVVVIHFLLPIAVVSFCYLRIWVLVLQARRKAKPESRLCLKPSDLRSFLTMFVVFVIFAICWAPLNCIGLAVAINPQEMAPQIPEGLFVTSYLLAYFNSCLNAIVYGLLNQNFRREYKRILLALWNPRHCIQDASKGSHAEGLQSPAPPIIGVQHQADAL

[1] = Brain-to-plasma concentration ratio in rat after intravenous administration; assay type: in vivo; conditions: brain and plasma, 15 minutes after intravenous administration
Experimental: At 15 minutes after intravenously administration of the test compound to the rats, the plasma and brain were collected. A 50% acetonitrile solution and an acetonitrile including internal standard material were added to the collected plasma. The collected brain was added to a 2-fold volume of PBS and homogenized. A 50% acetonitrile solution and an acetonitrile including internal standard material were added to the brain homogenate. The sample was centrifuged at 4° C. and 2150×g for 10 minutes, the supernatant was measured by LC-MS/MS, and the total concentration of the test compound in the brain (Cbrain) and the total concentration of the test compound in the plasma (Cplasma,t) were obtained. The brain-to-plasma concentrations ratio (Kp,brain) was calculated by the following equation.
(§1) The Kp,uu,CSF values and the Kp,brain values of ramelteon and some Example compounds of the present invention are shown in Table 4. Ex represents Example No. of the test compound. Unless otherwise specified, the Kp,uu,CSF was calculated using the fp values determined by an ultracentrifugation method. Further, N.T. represents Not Tested.

[2] = CSF-to-plasma unbound concentration ratio in rat after intravenous administration; assay type: in vivo; conditions: CSF and plasma (unbound), iv, 15 minutes after intravenous administration, fp by ultracentrifugation method
Experimental: A test compound (100 μg/mL, 50% acetonitrile solution) at 1% (v/v) with respect to the amount of the plasma was added to rat plasma, and dispensed to a sample for a supernatant and a sample for the plasma. The sample for a supernatant was ultracentrifuged at 436,000×g and 37° C. for 140 minutes, and the sample for the plasma was incubated at 37° C. for 140 minutes.
After 140 minutes, the sample for a supernatant after the ultracentrifugation and the sample for the plasma were taken, and mixed with the blank plasma or the blank supernatant, respectively. Acetonitrile including an internal standard material was added to each of the samples with the removal of protein, and after the centrifugation at 2150×g and 4° C. for 10 minutes the supernatant was injected into LC-MS/MS.
The unbound fraction in the plasma was calculated by the following equation.
To the plasma of a rat was added a test compound (0.2 mM, 50% acetonitrile solution) in an amount corresponding to 1% (v/v) of the plasma amount, and 200 μL of obtained plasma sample was filled into a plasma chamber of a RED device insert. A buffer chamber was filled with 350 μL of PBS, followed by performing equilibrium dialysis by stirring in a CO2 incubator at 37° C. for 16 hours. The sample after the completion of the equilibrium dialysis was recovered and the volume of the plasma sample was measured. To the plasma sample after the completion of the equilibrium dialysis were added PBS, a 20 mM ammonium formate buffer, and acetonitrile including an internal standard material. Similarly, to the PBS sample after the completion of the equilibrium dialysis was added a blank plasma, a 20 mM ammonium formate buffer, and acetonitrile including an internal standard material. This sample was left to stand at 4° C. for 30 minutes and then centrifuged 1500×g for 10 minutes, and the supernatant was measured by LC-MS/MS. The unbound fraction in the plasma was calculated by the following equation. fp=Cf/{(Cp−Cf)(V/V0)+Cf}
At 15 minutes after intravenously administration of the test compound to the rats, the plasma and CSF were collected. A 50% acetonitrile solution and an acetonitrile including internal standard material were added to the collected plasma or CSF. After centrifuging this sample at 4° C. and 2150×g for 10 minutes, the supernatant was measured by LC-MS/MS, and the total concentration of the test compound in the plasma (Cplasma,t) and the concentration of the test compound in CSF (CCSF) were obtained. The unbound concentration in the plasma (Cplasma,u) of the test compound and the CSF-to-plasma unbound concentration ratio (Kp,uu,CSF) of the test compound was calculated by the following equation.
as §1
(Ramelteon represents the values of Kp,uu,CSF after 10 minutes after the intravenous administration. Further, the Kp,uu,CSF of Examples 37 and 38 was calculated using the fp values determined by an equilibrium dialysis method. In addition, N.D. denotes the concentration of the test compound in CSF that is no higher than the detection limit.)

T1 sequence (P48039 whole entry): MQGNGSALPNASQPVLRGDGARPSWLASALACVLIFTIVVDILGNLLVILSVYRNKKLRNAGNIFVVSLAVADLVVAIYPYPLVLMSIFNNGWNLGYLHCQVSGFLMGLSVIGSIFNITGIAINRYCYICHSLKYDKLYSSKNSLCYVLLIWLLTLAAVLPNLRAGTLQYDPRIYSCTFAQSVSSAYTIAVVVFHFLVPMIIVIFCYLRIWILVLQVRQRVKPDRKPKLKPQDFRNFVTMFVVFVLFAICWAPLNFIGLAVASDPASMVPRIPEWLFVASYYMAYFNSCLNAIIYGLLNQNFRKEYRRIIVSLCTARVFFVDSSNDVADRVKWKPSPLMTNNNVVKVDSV

SMILES | EC50 (human MT1 receptor) | Emax (human MT1 receptor) | EC50 (human MT2 receptor) | Emax (human MT2 receptor) | Kp at 0.25 h [1] | Kp uu at 0.25 h [2]
CNC(=O)NCCc1c(C)[nH]c2ccc(OCCOc3ccnc(C)c3)cc12 [Example 9, 1-methyl-3-[2-(2-methyl-5-{2-[(2-methylpyridin-4-yl)oxy]ethoxy}-1H-indol-3-yl)ethyl]urea] | 9.9 nM | 84% | 32 nM | 116% | 0.01 | 
CC(=O)NCCc1c[nH]c2ccc(OCCOc3cccc(C)n3)cc12 [Example 11, N-[2-(5-{2-[(6-methylpyridin-2-yl)oxy]ethoxy}-1H-indol-3-yl)ethyl]acetamide] | 0.71 nM | 107% | 2.4 nM | 99% |  | 0.05
CC(=O)NCCc1c(C)[nH]c2cc(F)c(OCCOc3ccn(C)n3)cc12 [Example 13, N-[2-(6-fluoro-2-methyl-5-{2-[(1-methyl-1H-pyrazol-3-yl)oxy]ethoxy}-1H-indol-3-yl)ethyl]acetamide] | 4.3 nM | 105% | 7 nM | 110% |  | 0.03
CCC(=O)NCCc1c(C)[nH]c2ccc(OCCn3ccc(C)n3)cc12 [Example 15, N-(2-{2-methyl-5-[2-(3-methyl-1H-pyrazol-1-yl)ethoxy]-1H-indol-3-yl}ethyl)propanamide] | 8.4 nM | 106% | 12 nM | 110% |  | 0.04
CNC(=O)NCCc1c(C)[nH]c2ccc(OCCOc3ccc(OC)nc3)cc12 [Example 31, 1-[2-(5-{2-[(6-methoxypyridin-3-yl)oxy]ethoxy}-2-methyl-1H-indol-3-yl)ethyl]-3-methylurea] | 1.4 nM | 104% | 28 nM | 88% |  | 0.01
CC(=O)NC[C@H](C)c1c[nH]c2cc(F)c(OCCn3ccc(C)n3)cc12 [Example 39] | 7.2 nM | 104% | 51 nM | 49% |  | 
COc1ccc(OCCOc2cc3c([C@@H](C)CNC(C)=O)c[nH]c3cc2F)cn1 [Example 40] | 6.3 nM | 81% | 160 nM | 42% |  | 
CCCC(=O)NCCc1c[nH]c2ccc(OCCOc3ccn(C)n3)cc12 [Example 41] | 11 nM | 75% | 26 nM | 93% |  | 
Cn1ccc(OCCOc2ccc3[nH]cc(CCNC(=O)C(F)F)c3c2)n1 [Example 42] | 7.9 nM | 97% | 12 nM | 103% |  | 
CCC(=O)NCCc1c[nH]c2cc(F)c(OCCOc3ccn(C)n3)cc12 [Example 43] | 5.3 nM | 110% | 7.1 nM | 104% |  | 
Cn1ccc(OCCOc2cc3c(CCNC(=O)C(F)F)c[nH]c3cc2F)n1 [Example 44] | 3.3 nM | 103% | 4.5 nM | 102% |  | 
CCC(=O)NCCc1c(C)[nH]c2cc(F)c(OCCOc3ccn(C)n3)cc12 [Example 45] | 2.3 nM | 99% | 14 nM | 127% |  | 
CCC(=O)NCCc1c[nH]c2cc(F)c(OCCOc3ccc(OC)nc3)cc12 [Example 46] | 3.4 nM | 78% | 6.3 nM | 76% |  | 
CNC(=O)NCCc1c(C)[nH]c2cc(F)c(OCCOc3ccn(C)n3)cc12 [Example 47] | 9.8 nM | 124% | 41 nM | 145% |  | 
CNC(=O)NCCc1c(C)[nH]c2ccc(OCCOc3cnc(OC)c(F)c3)cc12 [Example 48] | 8.4 nM | 92% | 56 nM | 106% |  | 
CC(=O)NCCc1c[nH]c2ccc(OCCOc3cncc(Br)c3)cc12 [Example 49] | 5.6 nM | 102% | 11 nM | 119% |  | 

SMILES | EC50 (human MT1 receptor) | Emax (human MT1 receptor) | EC50 (human MT2 receptor) | Emax (human MT2 receptor) | Kp at 0.25 h [1] | Kp uu at 0.25 h [2]
CNC(=O)NCCc1c[nH]c2ccc(OCCOc3cncc(Br)c3)cc12 [Example 50] | 8.5 nM | 89% | 6.4 nM | 111% |  | 
CC(=O)NCCc1c[nH]c2ccc(OCCOc3ccnc(Cl)c3)cc12 [Example 51] | 5.3 nM | 95% | 4.7 nM | 108% |  | 
CNC(=O)NCCc1c[nH]c2ccc(OCCOc3ccnc(Cl)c3)cc12 [Example 52] | 10 nM | 92% | 5.6 nM | 117% |  | 
CNC(=O)NCCc1c[nH]c2ccc(OCCOc3cccc(OC)n3)cc12 [Example 53] | 1 nM | 112% | 4.8 nM | 99% |  | 
COc1cccc(OCCOc2ccc3[nH]cc(CCNC(C)=O)c3c2)n1 [Example 54] | 0.77 nM | 111% | 2.6 nM | 109% |  | 
CC(=O)NCCc1c[nH]c2ccc(OCCOc3cncc(Cl)c3)cc12 [Example 55] | 8 nM | 109% | 9.1 nM | 133% |  | 
CNC(=O)NCCc1c[nH]c2ccc(OCCOc3cncc(Cl)c3)cc12 [Example 56] | 15 nM | 92% | 9.9 nM | 125% |  | 
CC(=O)NCCc1c[nH]c2ccc(OCCOc3cncc(F)c3)cc12 [Example 57] | 12 nM | 94% | 13 nM | 114% |  | 
CNC(=O)NCCc1c[nH]c2ccc(OCCOc3cccc(C)n3)cc12 [Example 58] | 1.2 nM | 99% | 3.4 nM | 99% |  | 
CC(=O)NCCc1c[nH]c2ccc(OCCOc3ccnc(C)c3)cc12 [Example 59] | 6.6 nM | 120% | 9.6 nM | 99% |  | 
CC(=O)NCCc1c[nH]c2ccc(OCCOc3cccc(C4CC4)n3)cc12 [Example 60] | 7.2 nM | 94% | 9.2 nM | 104% |  | 
CCCc1cccc(OCCOc2ccc3[nH]cc(CCNC(C)=O)c3c2)n1 [Example 61] | 6.9 nM | 84% | 5.4 nM | 92% |  | 
CC(=O)NCCc1c[nH]c2ccc(OCCOc3nccc(C(F)(F)F)n3)cc12 [Example 62] | 11 nM | 101% | 16 nM | 118% |  | 
CC(=O)NCCc1c[nH]c2ccc(OCCOc3ccon3)cc12 [Example 63] | 9.7 nM | 90% | 9 nM | 105% |  | 
CC(=O)NCCc1c[nH]c2ccc(OCCOc3ccccn3)cc12 [Example 64] | 1.6 nM | 102% | 2.1 nM | 116% |  | 

Reference: patent US9637451B2, “Indole compound” (ASTELLAS PHARMA INC., priority 2014, dated 2017)
